# Laboratory results published in patent US20200011856A1, “Method for Determining the Effectiveness of Treatment for the Prevention of Heartworm Disease” (priority 2017, published 2020).
# Values joined by “and” are separate entries in the source; they are usually repeats but may differ in a detail not shown here. Identical values can stand only once.
# Columns and labels:
# [1] = tested on: Dirofilaria immitis; assay: D. immitis L3 infection of NSG mice (FR3 Missouri strain or strain not stated), treatment, recovery and count of worms at necropsy; type: in vivo; details: in vivo
# [2] = tested on: Dirofilaria immitis (Merial worms, UC strain); assay: D. immitis L3 infection of NSG mice with Merial worms / UC strain, treatment, recovery and count of worms; type: in vivo; details: in vivo, 3 mg/kg
# [3] = tested on: Strongyloides stercoralis; assay: Strongyloides stercoralis L3 infection of NSG mice with or without MPA, treatment, counts of adult worms, L1 and L3; details: 6 weeks post-injection; for Adult S. stercoralis recovery counts (individual mice) / Adult S. stercoralis recovery counts, mean / L1 S. stercoralis recovery counts (individual mice) / L1 S. stercoralis recovery counts, mean / L3 S. stercoralis recovery counts (individual mice) / L3 S. stercoralis recovery counts, mean: 5000 L3 s.c.
# Description: NSG mice infected by subcutaneous injection with 5000 S. stercoralis L3 larvae, either with or without MPA. […] Adult worms, L1 larvae, or L3 larvae were counted in the mice at 6 weeks post-injection.
# [4] = tested on: Haemonchus contortus; assay: Haemonchus contortus L3 infection of control and MPA-treated NSG mice, worm and egg recovery; type: in vivo
# [5] = IVM Control: 3 mg/kg IVM days 1, 15, 30, without MPA
# [6] = IVM/MPA: 3 mg/kg IVM days 1, 15, 30, with MPA (hyperinfection)
smiles,measurement,setting,value
"CC[C@H](C)[C@H]1O[C@]2(CC[C@@H]1C)C[C@@H]1C[C@@H](C/C=C(\C)[C@@H](O[C@H]3C[C@H](OC)[C@@H](O[C@H]4C[C@H](OC)[C@@H](O)[C@H](C)O4)[C@H](C)O3)[C@@H](C)/C=C/C=C3\CO[C@@H]4[C@H](O)C(C)=C[C@@H](C(=O)O1)[C@]34O)O2 [IVM, ivermectin]","% Rec, Mean",[1],1% and 4% and 2%
same,Mean % Rec,[1],6%
same,Mean Survival,[1],3
same,"HW parasite load (normalized percent larva recovery, FIG. 2)","[1]; po, 3 mg/kg",significantly reduced HW parasite load
same,% Red,[2],47%
same,Mean % Rec,[2],18%
same,Mean Survival,[2],9
same,Adult S. stercoralis recovery counts (individual mice),[3]; [5],0
same,"Adult S. stercoralis recovery counts, mean",[3]; [5],0
same,L1 S. stercoralis recovery counts (individual mice),[3]; [5],0
same,"L1 S. stercoralis recovery counts, mean",[3]; [5],0
same,L3 S. stercoralis recovery counts (individual mice),[3]; [5],6 and 9 and 26 and 210 and 2
same,"L3 S. stercoralis recovery counts, mean",[3]; [5],51
same,Adult S. stercoralis recovery counts (individual mice),[3]; [6],0
same,"Adult S. stercoralis recovery counts, mean",[3]; [6],0
same,L1 S. stercoralis recovery counts (individual mice),[3]; [6],0
same,"L1 S. stercoralis recovery counts, mean",[3]; [6],0
same,L3 S. stercoralis recovery counts (individual mice),[3]; [6],19 and 24 and 4 and 13 and 25 and 16 and 40 and 38
same,"L3 S. stercoralis recovery counts, mean",[3]; [6],22
same,Circulating L3,"[3]; NSG mice, 5000 S. stercoralis L3 SC, with or without MPA, 3 mg/kg on days 1, 15, and 30",reduced the circulating L3
"CC(=O)OCC(=O)[C@@]1(O)CC[C@H]2[C@@H]3C[C@H](C)C4=CC(=O)C=C[C@]4(C)[C@H]3[C@@H](O)C[C@@]21C [MPA, methylprednisolone acetate]","Hc Recovery, Average","[4]; MPA-treated NSG mice, 500 Hc L3 oral gavage, 14 Days PI",10.5
same,"Hc Recovery, Average","[4]; MPA-treated NSG mice, 500 Hc L3 oral gavage, 21 Days PI",2
same,"Hc Recovery, Average","[4]; MPA-treated NSG mice, 500 Hc L3 oral gavage, 28 Days PI",0
same,"Hc Recovery, Average","[4]; MPA-treated NSG mice, 500 Hc L3 oral gavage, 56 Days PI",0
same,"Hc Recovery, Average","[4]; MPA-treated NSG mice, 500 Hc L3 oral gavage, 7 days PI",19.5
same,Hc Recovery (individual mice),"[4]; MPA-treated NSG mice, 1000 Hc L3 oral gavage, 14 Days PI",15 and 1
same,Hc Recovery (individual mice),"[4]; MPA-treated NSG mice, 1000 Hc L3 oral gavage, 21 Days PI",15 and 20
same,Hc Recovery (individual mice),"[4]; MPA-treated NSG mice, 1000 Hc L3 oral gavage, 28 Days PI",0 and 1
same,Hc Recovery (individual mice),"[4]; MPA-treated NSG mice, 1000 Hc L3 oral gavage, 56 Days PI",0
same,"Hc Recovery, Average","[4]; MPA-treated NSG mice, 1000 Hc L3 oral gavage, 7 days PI",36
same,# Eggs Found,[4]; in vivo,2
same,Hc Recovery (individual mice),"[4]; in vivo, po",19 and 2 and 0 and 36 and 3 and 24 and 48
same,Adult S. stercoralis recovery counts (individual mice),[3]; MPA only (hyperinfection),888 and 235 and 34 and 437 and 581 and 447
same,"Adult S. stercoralis recovery counts, mean",[3]; MPA only (hyperinfection),437
same,L1 S. stercoralis recovery counts (individual mice),[3]; MPA only (hyperinfection),86 and 24 and 8456 and 9181 and 3464 and 670
same,"L1 S. stercoralis recovery counts, mean",[3]; MPA only (hyperinfection),3647
same,L3 S. stercoralis recovery counts (individual mice),[3]; MPA only (hyperinfection),275 and 31 and 2760 and 1766 and 632 and 1015
same,"L3 S. stercoralis recovery counts, mean",[3]; MPA only (hyperinfection),1080
